Test results reported in patent publication US12595267B2, “Preparation method for amide compound and application thereof in field of medicine” (Shanghai Synergy Pharmaceutical Sciences Co., Ltd., priority 2019, dated 2026).
Read-outs that look alike come from different tables or passages of the source.

How the values were obtained:
[1] = test system: Pfeiffer cells; experiment: Calcein AM proliferation assay, Pfeiffer cells; assay type: cell-based, human; conditions: read-out: Pfeiffer proliferation IC50
[2] = test system: WSU-DLCL2 cell mouse xenograft tumor model; experiment: Pharmacodynamic experiment in WSU-DLCL2 mouse xenograft tumor model; assay type: in vivo; conditions: CB17/SCID mice
Method: A certain amount of the compound was weighed, dissolved in 0.1% tween for vortex and ultrasound, and then 0.5% sodium carboxymethyl cellulose (CMC-Na) solution was added to prepare a uniform solution.
(§1) By observing under a microscope, it was confirmed that the cells are in good condition. The cells were transferred to a 15 mL centrifuge tube, which was centrifuged at 1000 rpm for 5 minutes.

[3] = test system: Karpas 422 cells; experiment: Calcein AM proliferation assay, Karpas 422 cells; assay type: cell-based, human; conditions: read-out: Karpas422 proliferation IC50
[4] = Pharmacokinetics experiment in rats; assay type: in vivo; conditions: rat, plasma, male SD rats; for bioavailability: oral 20 mg/kg vs intravenous 4 mg/kg, read-out: Bioavailability (F %); for AUC: read-out: Area under the curve (AUC); for half-life: read-out: Half life (T1/2) (converted); for Cmax: read-out: Blood drug level (Cmax)
Method: Male SD rats weighing 200-300 g and 8 weeks old were used as experimental animals. […] The pharmacokinetic behavior of the compound of the present invention in rats was studied, and the pharmacokinetic characteristics thereof were evaluated.
A certain amount of the compound was weighed, dissolved in 0.10% tween for vortex and ultrasound, and then 0.5% sodium carboxymethyl cellulose (CMC-Na) solution was added to prepare a uniform solution.
The above-mentioned compounds were applied intravenously and orally to rats at a dose of 4 mg/kg and a dose of 20 mg/kg, respectively. At 0.083 h, 0.25 h, 0.5 h, 1.0 h, 2.0 h, 4.0 h, 6.0 h, 8.0 h, 12.0 h, and 24.0 h after application, 0.2 mL of blood was collected from the orbit, and placed in an anticoagulant tube, which was centrifuged at 6000 rpm for 10 minutes at 4° C. The plasma was separated and stored at −80° C.

[5] = test system: WSU-DLCL2 cells; experiment: Calcein AM proliferation assay, WSU-DLCL2 cells; assay type: cell-based, human; conditions: read-out: WSU-DLCL2 proliferation IC50
Method: as §1
Gradient dilutions of the compounds in DMSO were performed, and a compound plate with a final concentration of 500-fold was prepared. 1.2 μL of 500× compound was pipetted, transferred to 200 μL medium, and pipetted to mix well to obtain a 3× compound intermediate plate. 50 μL 3× compound is pipetted and added to the cell plate according to the set arrangement.
The cells of the above concentration were inoculated in 96-well plates, 100 μL/well (the number of cells in each well is 10,000). The cell plate was placed in a carbon dioxide incubator for 4 days. The cell plate was taken out. After mixed uniformly, a certain volume of cell suspension was drawn, and stained with Calcein AM. The number of cells in each well was counted with Acumen. According to the number of detected cells, 10,000 cells were re-inoculated in 96-well plates. As above, the compound was added. After placed in a carbon dioxide incubator for 3 days (day 7). The cell plate was taken out again. After mixed uniformly, a certain volume of cell suspension was drawn, stained with Calcein AM. The number of cells in each well was counted with Acumen. The cells were cultured for another 4 days (day 11), and the cell plate was taken out for the third time. After mixed uniformly, a certain volume of cell suspension was drawn, and stained with Calcein AM. The number of cells in each well was counted with Acumen. According to the number of detected cells, 10,000 cells were re-inoculated in 96-well plates. As above, the compound was added. […] After Calcein AM staining, the number of the cells was counted to obtain the final count result. The data of day 14 was processed to obtain the corresponding half-inhibitory concentration (IC50).
Using GraphPad Prism 5 software, a non-linear regression model was used to draw the S-type dose-survival rate curve and to calculate the IC50 value.

[6] = target: T1, Mutant EZH2 (A677G) (Homo sapiens, UniProt Q15910, A677G); experiment: AlphaLISA assay on mutant PRC2 complex, EZH2 A677G; assay type: biochemical
T1 construct: purchased BPS 51004
Method: Detection Method: AlphaLISA
(§2) Finally, 15 μl detection solution mixture was added under low light, and incubated at room temperature for 60 minutes, and read the value.

[7] = target: T2, Mutant EZH2 (Y641N) (Homo sapiens, UniProt Q15910, Y641N); experiment: AlphaLISA assay on mutant PRC2 complex, EZH2 Y641N; assay type: biochemical
T2 construct: purchased BPS 51004
Method: Detection Method: AlphaLISA
as §2

[8] = target: T3, Mutant EZH2 (Y641F) (Homo sapiens, UniProt Q15910, Y641F); experiment: AlphaLISA assay on mutant PRC2 complex, EZH2 Y641F; assay type: biochemical
T3 construct: purchased BPS 51004
Method: Detection Method: AlphaLISA
as §2

[9] = target: wild-type EZH2 (Homo sapiens, UniProt Q15910); experiment: Radiometric assay of activity on wild-type PRC2 EZH2
Method: 10 microliters (μL) of the compound of the test example and wild-type EZH2 were added to each well. After being incubated at room temperature for 15 minutes, peptides and [3H]-labeled methyl donor S-adenosylmethionine (SAM) were added. After reacting at room temperature for 1 hour (h), cold SAM was added to terminate the reaction. 25 μl reaction solution was transferred to the scintillation plate. After incubating for 1 hour (h) at room temperature, the plate was washed three times with deionized water and 0.1% Tween 20. The value was read with a PerkinElmer liquid scintillation/luminescence counter, and the half inhibitory concentration (IC50) of the compound was calculated with the Prism 5 software (GraphPad Prism 5).

[10] = 150 mg/kg gastric irrigation, 21 days
[11] = Homo sapiens, Pfeiffer, day 14 data, Calcein AM staining
[12] = Homo sapiens, KARPAS-422, day 14 data, Calcein AM staining
[13] = Homo sapiens, WSUDLCL2, day 14 data, Calcein AM staining
[14] = day 14 data, Calcein AM staining

T2 sequence (Q15910 whole entry Y641N): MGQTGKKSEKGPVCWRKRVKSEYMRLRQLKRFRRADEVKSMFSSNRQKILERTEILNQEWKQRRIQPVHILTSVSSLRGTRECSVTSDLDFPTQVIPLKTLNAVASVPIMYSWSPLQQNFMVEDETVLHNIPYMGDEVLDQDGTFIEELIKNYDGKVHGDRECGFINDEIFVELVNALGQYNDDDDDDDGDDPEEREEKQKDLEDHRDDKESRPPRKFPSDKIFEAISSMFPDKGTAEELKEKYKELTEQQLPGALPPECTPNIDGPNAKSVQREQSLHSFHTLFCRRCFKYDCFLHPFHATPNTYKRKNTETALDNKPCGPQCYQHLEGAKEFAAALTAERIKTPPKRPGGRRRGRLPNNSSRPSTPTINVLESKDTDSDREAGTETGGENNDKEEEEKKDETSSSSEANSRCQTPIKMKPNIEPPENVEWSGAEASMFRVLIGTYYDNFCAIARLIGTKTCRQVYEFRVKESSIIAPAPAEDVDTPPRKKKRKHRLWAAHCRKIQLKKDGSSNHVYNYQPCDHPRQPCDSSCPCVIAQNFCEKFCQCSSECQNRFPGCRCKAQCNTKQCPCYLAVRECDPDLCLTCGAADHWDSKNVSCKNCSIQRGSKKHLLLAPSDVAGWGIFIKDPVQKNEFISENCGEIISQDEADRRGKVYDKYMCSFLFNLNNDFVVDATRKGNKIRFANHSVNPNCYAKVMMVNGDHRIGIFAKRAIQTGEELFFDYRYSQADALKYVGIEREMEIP
T2 sequence (O75530 whole entry partner): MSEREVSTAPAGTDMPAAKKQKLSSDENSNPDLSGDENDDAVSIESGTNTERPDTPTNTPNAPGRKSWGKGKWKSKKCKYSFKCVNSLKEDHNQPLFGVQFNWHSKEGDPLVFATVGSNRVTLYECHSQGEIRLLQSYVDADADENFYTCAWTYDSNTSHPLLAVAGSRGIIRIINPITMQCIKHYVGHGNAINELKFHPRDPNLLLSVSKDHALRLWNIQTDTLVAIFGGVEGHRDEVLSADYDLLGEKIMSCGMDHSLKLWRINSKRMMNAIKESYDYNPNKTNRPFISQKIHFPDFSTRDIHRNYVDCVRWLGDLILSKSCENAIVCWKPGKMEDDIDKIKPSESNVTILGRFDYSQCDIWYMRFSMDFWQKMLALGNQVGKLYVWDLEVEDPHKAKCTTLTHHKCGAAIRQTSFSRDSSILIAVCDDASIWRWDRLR
T2 sequence (Q15022 whole entry partner): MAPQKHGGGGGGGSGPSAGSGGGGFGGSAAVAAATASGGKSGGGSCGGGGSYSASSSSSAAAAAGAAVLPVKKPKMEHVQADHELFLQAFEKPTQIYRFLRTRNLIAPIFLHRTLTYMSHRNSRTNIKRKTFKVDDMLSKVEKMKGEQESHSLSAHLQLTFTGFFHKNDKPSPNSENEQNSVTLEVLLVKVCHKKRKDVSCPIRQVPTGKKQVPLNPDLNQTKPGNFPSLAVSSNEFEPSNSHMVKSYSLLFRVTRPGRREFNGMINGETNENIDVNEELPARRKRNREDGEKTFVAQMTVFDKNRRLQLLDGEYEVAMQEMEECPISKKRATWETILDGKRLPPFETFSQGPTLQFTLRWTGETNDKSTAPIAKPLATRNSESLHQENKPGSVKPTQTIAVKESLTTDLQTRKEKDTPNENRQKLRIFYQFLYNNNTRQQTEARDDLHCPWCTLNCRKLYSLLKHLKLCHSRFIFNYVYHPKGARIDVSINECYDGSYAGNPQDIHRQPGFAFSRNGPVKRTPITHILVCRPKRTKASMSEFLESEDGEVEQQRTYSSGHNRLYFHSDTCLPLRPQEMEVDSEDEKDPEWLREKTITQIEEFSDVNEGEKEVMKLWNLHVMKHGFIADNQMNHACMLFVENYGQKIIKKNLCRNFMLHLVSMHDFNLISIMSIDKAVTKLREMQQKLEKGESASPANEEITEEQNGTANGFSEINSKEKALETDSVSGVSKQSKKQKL
T2 sequence (Q09028 whole entry partner): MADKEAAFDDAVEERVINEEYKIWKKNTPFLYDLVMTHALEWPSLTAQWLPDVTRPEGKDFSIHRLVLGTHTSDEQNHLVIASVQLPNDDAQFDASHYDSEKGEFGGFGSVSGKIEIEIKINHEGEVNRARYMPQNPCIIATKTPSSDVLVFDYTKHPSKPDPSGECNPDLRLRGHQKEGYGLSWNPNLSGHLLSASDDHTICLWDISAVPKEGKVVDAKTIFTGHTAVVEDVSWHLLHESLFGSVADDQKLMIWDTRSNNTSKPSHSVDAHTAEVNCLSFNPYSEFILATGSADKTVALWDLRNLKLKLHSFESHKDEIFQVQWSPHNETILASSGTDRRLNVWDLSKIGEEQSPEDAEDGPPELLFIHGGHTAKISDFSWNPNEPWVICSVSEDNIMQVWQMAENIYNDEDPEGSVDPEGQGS
T2 sequence (Q6ZN18 whole entry partner): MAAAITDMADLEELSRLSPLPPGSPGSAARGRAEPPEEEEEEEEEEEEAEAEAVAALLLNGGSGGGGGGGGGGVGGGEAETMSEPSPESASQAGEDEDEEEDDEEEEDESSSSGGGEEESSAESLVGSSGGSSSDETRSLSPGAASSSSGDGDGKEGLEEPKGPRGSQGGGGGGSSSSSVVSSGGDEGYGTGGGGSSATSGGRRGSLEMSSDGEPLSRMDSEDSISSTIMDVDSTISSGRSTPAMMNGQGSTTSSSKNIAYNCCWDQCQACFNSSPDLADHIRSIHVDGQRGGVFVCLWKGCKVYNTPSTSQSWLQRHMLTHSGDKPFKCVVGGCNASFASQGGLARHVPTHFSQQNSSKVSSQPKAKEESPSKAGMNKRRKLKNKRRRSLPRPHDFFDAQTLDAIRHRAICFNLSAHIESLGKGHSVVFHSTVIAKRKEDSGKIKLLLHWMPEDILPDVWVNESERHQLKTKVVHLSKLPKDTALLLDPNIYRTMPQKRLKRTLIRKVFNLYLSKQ
Sequence of wild-type EZH2 (Q15910 whole entry): as the sequence (Q15910 whole entry Y641N) above, with N641Y counted along it
Sequence of wild-type EZH2 (O75530 whole entry partner): as the sequence (O75530 whole entry partner) above
Sequence of wild-type EZH2 (Q15022 whole entry partner): as the sequence (Q15022 whole entry partner) above
Sequence of wild-type EZH2 (Q09028 whole entry partner): as the sequence (Q09028 whole entry partner) above
T1 sequence (Q15910 whole entry A677G): as the sequence (Q15910 whole entry Y641N) above, with N641Y, A677G counted along it
T1 sequence (O75530 whole entry partner): as the sequence (O75530 whole entry partner) above
T1 sequence (Q15022 whole entry partner): as the sequence (Q15022 whole entry partner) above
T1 sequence (Q09028 whole entry partner): as the sequence (Q09028 whole entry partner) above
T1 sequence (Q6ZN18 whole entry partner): as the sequence (Q6ZN18 whole entry partner) above
T3 sequence (Q15910 whole entry Y641F): as the sequence (Q15910 whole entry Y641N) above, with N641F counted along it
T3 sequence (O75530 whole entry partner): as the sequence (O75530 whole entry partner) above
T3 sequence (Q15022 whole entry partner): as the sequence (Q15022 whole entry partner) above
T3 sequence (Q09028 whole entry partner): as the sequence (Q09028 whole entry partner) above
T3 sequence (Q6ZN18 whole entry partner): as the sequence (Q6ZN18 whole entry partner) above

CCN(c1cc(-c2ccc3c(c2)CCC3N2CCOCC2)c(Cl)c(C(=O)NCc2c(OC)cc(C)[nH]c2=O)c1C)C1CCOCC1 (centres unmarked) [Compound 12, 2-chloro-5-(ethyl(tetrahydro-2H-pyran-4-yl)amino)-N-((4-methoxy-6-methyl-2-carbonyl-1,2-dihydropyridin-3-yl)methyl)-6-methyl-3-(1-morpholino-2,3-dihydro-1H-inden-5-yl)benzamide]
IC50 ([1]; Homo sapiens, Pfeiffer, […]): 1.69 nM | tumor growth inhibition [2, 10]: 85% | IC50 ([3]; Homo sapiens, KARPAS-422, […]): 1.84 nM | bioavailability [4]: 27.4% | AUC ([4]; intravenous dosing 4 mg/kg): 956 ng·h/mL | half-life ([4]; intravenous dosing 4 mg/kg): 85.2 min | AUC ([4]; oral dosing 20 mg/kg): 1310 ng·h/mL | Cmax ([4]; oral dosing 20 mg/kg): 480 ng/mL | IC50 ([5]; Homo sapiens, WSUDLCL2, […]): 2.36 nM

CCN(c1cc(N2Cc3ccccc3C2)cc(C(=O)NCc2c(C)cc(C)[nH]c2=O)c1C)C1CCOCC1 [Compound 15, N-4,6-((dimethyl-2-oxo-1,2-dihydropyridin-3-yl)methyl)-3-(ethyl (tetrahydro-2H-pyran-4-yl)amino)-5-(5-isoindolin-2-yl)-2-methylbenzamide]
IC50 [1, 11]: 0.93 nM | IC50 [6]: 0.24 nM | IC50 [3, 12]: 2.15 nM | IC50 [7]: 0.1 nM | bioavailability [4]: 34.5% | AUC ([4]; intravenous dosing 4 mg/kg): 893 ng·h/mL | half-life ([4]; intravenous dosing 4 mg/kg): 85.2 min | AUC ([4]; oral dosing 20 mg/kg): 1540 ng·h/mL | Cmax ([4]; oral dosing 20 mg/kg): 500 ng/mL | IC50 [8]: 0.78 nM | IC50 [5, 13]: 2.46 nM

CCN(c1cc(N2CCc3ccccc3C2)cc(C(=O)NCc2c(C)cc(C)[nH]c2=O)c1C)C1CCOCC1 [Compound 16, 5-(3,4-dihydroisoquinoline-2(1H)-yl)-N-((4,6-dimethyl-2-oxo-1,2-dihydropyridin-3-yl)methyl)-3-(ethyl(tetrahydro-2H-pyran-4-yl)amino)-2-methylbenzamide]
IC50 [1, 11]: 1.87 nM | IC50 [6]: 0.74 nM | IC50 [3, 12]: 3.34 nM | IC50 [7]: 0.61 nM | IC50 [9]: 0.95 nM | bioavailability [4]: 24.4% | AUC ([4]; intravenous dosing 4 mg/kg): 975 ng·h/mL | half-life ([4]; intravenous dosing 4 mg/kg): 112 min | AUC ([4]; oral dosing 20 mg/kg): 1190 ng·h/mL | Cmax ([4]; oral dosing 20 mg/kg): 433 ng/mL | IC50 [8]: 0.82 nM | IC50 [5, 13]: 5.12 nM

CCN(c1cc(N2Cc3ccc(N4CCOCC4)cc3C2)cc(C(=O)NCc2c(C)cc(C)[nH]c2=O)c1C)C1CCOCC1 [Compound 18, N-((4,6-dimethyl-2-oxo-1,2-dihydropyridin-3-yl)methyl)-3-(ethyl (tetrahydro-2H-pyran-4-yl)amino)-2-methyl-5-(5-morpholinoisoindolin-2-yl) benzamide]
IC50 [1, 11]: 1.86 nM | IC50 [6]: 0.64 nM | IC50 [3, 12]: 2.34 nM | IC50 [7]: 0.5 nM | IC50 [9]: 0.8 nM | bioavailability [4]: 34.3% | AUC ([4]; intravenous dosing 4 mg/kg): 969 ng·h/mL | half-life ([4]; intravenous dosing 4 mg/kg): 94.2 min | AUC ([4]; oral dosing 20 mg/kg): 1660 ng·h/mL | Cmax ([4]; oral dosing 20 mg/kg): 457 ng/mL | IC50 [8]: 0.71 nM | IC50 [5, 13]: 2.89 nM

CCN(c1cc(N2Cc3cn(C)cc3C2)cc(C(=O)NCc2c(C)cc(C)[nH]c2=O)c1C)C1CCOCC1 [Compound 21, N-((4,6-dimethyl-2-oxo-1,2-dihydropyridin-3-yl)methyl)-3-(ethyl (tetrahydro-2H-pyran-4-yl)amino)-2-methyl-5-(5-methyl-3,5-dihydropyrrolo[3,4-c]pyrrole-2(1H)-yl)benzamide]
IC50 [1, 11]: 7.16 nM | tumor growth inhibition [2, 10]: 90% | IC50 [3, 12]: 8.15 nM | IC50 [9]: 0.9 nM | bioavailability [4]: 26.8% | AUC ([4]; intravenous dosing 4 mg/kg): 932 ng·h/mL | half-life ([4]; intravenous dosing 4 mg/kg): 103 min | AUC ([4]; oral dosing 20 mg/kg): 1250 ng·h/mL | Cmax ([4]; oral dosing 20 mg/kg): 426 ng/mL | IC50 [5, 13]: 9.38 nM

CCN(c1cc(-c2cc3c(cc2F)C(N2CCOCC2)CC3)c(F)c(C(=O)NCc2c(C)cc(C)[nH]c2=O)c1C)C1CCOCC1 (centres unmarked) [Compound 28]
IC50 [1, 11]: 1.53 nM | IC50 [6]: 0.5 nM | IC50 [3, 12]: 2.7 nM | IC50 [7]: 0.3 nM | IC50 [9]: 0.91 nM | IC50 [5, 13]: 3.47 nM

CCN(c1cc(-c2ccc3c(c2)CCN3C2CCOCC2)cc(C(=O)NCc2c(C)cc(C)[nH]c2=O)c1C)C1CCOCC1 [Compound 29, N-((4,6-dimethyl-2-oxo-1,2-dihydropyridin-3-yl)methyl)-3-(ethyl (tetrahydro-2H-pyran-4-yl)amino)-2-methyl-5-(1-(1-tetrahydro-2H-pyran-4-yl)indolin-5-yl)benzamide]
IC50 [1, 11]: 1.42 nM | tumor growth inhibition [2, 10]: 78% | IC50 [3, 12]: 1.99 nM | IC50 [5, 13]: 2.18 nM

CC[C@H](C)n1cc(C)c2c(C(=O)NCc3c(C)cc(C)[nH]c3=O)cc(-c3ccc(N4CCNCC4)nc3)cc21 [GSK126, reference compound]
IC50 [1, 14]: 12.2 nM | tumor growth inhibition ([2]; 50 mg/kg abdominal, once a day for 21 days): 61% | IC50 [3, 14]: 20.3 nM | IC50 [5, 14]: 34.1 nM
